Source: the NIST ThermoML archive (doi:10.1016/j.jct.2015.01.005)
“And” between values parts separate entries of the source, which are not always exact repeats. Identical values can stand only once. Numbers after ± are expanded uncertainties.

Columns and labels:
[1] = Molar enthalpy of transition or fusion; conditions: DSC
[2] = for molar entropy: 101.33 kPa, Small (less than 1 g) adiabatic calorimetry; for vapor or sublimation pressure: Calculated from knudsen effusion weight loss; for Triple point temperature: DTA

O[C@@H]1[C@@H](O)[C@@H]2OC[C@@H](O2)[C@H]1O [1,6-anhydro-β-D-glucopyranose]
Conditions	Molar enthalpy of transition or fusion, [1] [kJ/mol]	Triple point temperature, [2] [K]
Crystal 1	2.9 ± 0.2	454 ± 1
Crystal 2	25 ± 0.7	384 ± 1

[2]
Conditions	molar entropy [J/K/mol]	vapor or sublimation pressure
5 K, Crystal 2	0.145 ± 0.026	–
10 K, Crystal 2	0.302 ± 0.029	–
15 K, Crystal 2	1.222 ± 0.047	–
20 K, Crystal 2	2.884 ± 0.072	–
25 K, Crystal 2	5.162 ± 0.095	–
30 K, Crystal 2	7.89 ± 0.17	–
35 K, Crystal 2	10.92 ± 0.19	–
40 K, Crystal 2	14.15 ± 0.21	–
45 K, Crystal 2	17.49 ± 0.24	–
50 K, Crystal 2	20.92 ± 0.26	–
60 K, Crystal 2	27.86 ± 0.32	–
70 K, Crystal 2	34.84 ± 0.38	–
80 K, Crystal 2	41.77 ± 0.42	–
90 K, Crystal 2	48.63 ± 0.52	–
100 K, Crystal 2	55.42 ± 0.57	–
110 K, Crystal 2	62.19 ± 0.62	–
120 K, Crystal 2	68.89 ± 0.67	–
130 K, Crystal 2	75.51 ± 0.72	–
140 K, Crystal 2	82.05 ± 0.76	–
150 K, Crystal 2	88.52 ± 0.81	–
160 K, Crystal 2	94.93 ± 0.86	–
170 K, Crystal 2	101.3 ± 0.9	–
180 K, Crystal 2	107.6 ± 0.9	–
190 K, Crystal 2	113.9 ± 1	–
200 K, Crystal 2	120.2 ± 1	–
210 K, Crystal 2	126.4 ± 1.1	–
220 K, Crystal 2	132.6 ± 1.1	–
230 K, Crystal 2	138.9 ± 1.2	–
240 K, Crystal 2	145.1 ± 1.2	–
250 K, Crystal 2	151.3 ± 1.2	–
260 K, Crystal 2	157.5 ± 1.3	–
270 K, Crystal 2	163.7 ± 1.4	–
280 K, Crystal 2	170 ± 1.4	–
290 K, Crystal 2	176.3 ± 1.4	–
298.15 K, Crystal 2	181.4 ± 1.4	–
300 K, Crystal 2	182.5 ± 1.4	–
310 K, Crystal 2	188.8 ± 1.6	–
320 K, Crystal 2	195.1 ± 1.6	–
330 K, Crystal 2	201.5 ± 1.6	–
340 K, Crystal 2	207.9 ± 1.6	–
350 K, Crystal 2	214.4 ± 1.8	–
353.55 K, Crystal 2	–	2.63e-05 ± 1.7e-06 kPa
353.56 K, Crystal 2	–	2.36e-05 ± 1.5e-06 kPa
358.59 K, Crystal 2	–	4.61e-05 ± 2.9e-06 kPa
360 K, Crystal 2	220.9 ± 1.8	–
363.6 K, Crystal 2	–	8.11e-05 ± 5.1e-06 kPa
368.61 K, Crystal 2	–	0.00014 ± 9e-06 kPa
368.62 K, Crystal 2	–	0.000141 ± 9e-06 kPa and 0.00014 ± 9e-06 kPa
370 K, Crystal 2	227.4 ± 1.8	–
373.63 K, Crystal 2	–	0.000248 ± 1.5e-05 kPa and 0.000254 ± 1.6e-05 kPa
373.64 K, Crystal 2	–	0.000243 ± 1.5e-05 kPa
378.63 K, Crystal 2	–	0.00041 ± 2.6e-05 kPa
378.64 K, Crystal 2	–	0.000426 ± 2.7e-05 kPa
378.65 K, Crystal 2	–	0.000416 ± 2.6e-05 kPa
380 K, Crystal 2	234.1 ± 1.9	–
383.65 K, Crystal 2	–	0.000688 ± 4.2e-05 kPa and 0.000723 ± 4.5e-05 kPa
383.66 K, Crystal 2	–	0.000727 ± 4.5e-05 kPa and 0.000742 ± 4.6e-05 kPa
384 K, Crystal 1	301.8 ± 2.6	–
384 K, Crystal 2	236.7 ± 1.9	–
